Structures are written as SMILES. Where two headings read alike, the source gives them in different places.

In one assay the target is T1, human A1 AR (Homo sapiens, UniProt P30542).
T1 construct: expressed in transfected cells
T1 sequence (P30542 1-326): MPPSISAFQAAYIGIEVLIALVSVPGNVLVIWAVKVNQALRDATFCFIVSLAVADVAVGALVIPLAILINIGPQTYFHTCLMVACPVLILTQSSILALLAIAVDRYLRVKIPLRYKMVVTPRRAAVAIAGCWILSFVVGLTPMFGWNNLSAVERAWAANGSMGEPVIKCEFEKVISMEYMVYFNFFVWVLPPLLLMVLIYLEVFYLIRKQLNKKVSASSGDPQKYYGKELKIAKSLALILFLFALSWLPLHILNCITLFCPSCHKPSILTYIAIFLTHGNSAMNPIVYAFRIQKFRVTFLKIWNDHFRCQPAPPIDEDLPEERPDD
Description: Radioligand competition binding to human A1 adenosine receptor (125I-ABA). The conditions noted are these: membranes of CHO K1 cells expressing human A1 AR, read-out: A1 (nM) binding affinity. How it is done: (§1) Sf9 cells were cultured in Grace's medium supplemented with 10% fetal bovine serum, 2.5 μg/ml amphotericin B and 50 μg/ml gentamycin in an atmosphere of 50% N2/50% O2. Viral infection was performed at a density of 2.5×10^6 cells/mL with a multiplicity of infection of two for each virus used. Infected cells were harvested 3 days post-infection and washed twice in insect PBS (PBS pH 6.3). Cells were then resuspended in lysis buffer (20 mM HEPES pH 7.5, 150 mM NaCl, 3 mM MgCl2, 1 mM β-mercaptoethanol (BME), 5 μg/mL leupeptin, 5 μg/mL pepstatin A, 1 μg/mL aprotinin, and 0.1 mM PMSF) and snap frozen for storage at −80° C. Cells were thawed on ice, brought to 30 mL total volume in lysis buffer, and burst by N2 cavitation (600 psi for 20 minutes). A low-speed centrifugation was performed to remove any unlysed cells (1000×g for 10 minutes), followed by a high-speed centrifugation (17,000×g for 30 minutes). The pellet from the final centrifugation was homogenized in buffer containing 20 mM HEPES pH 8, 100 mM NaCl, 1% glycerol, 2 μg/mL leupeptin, 2 μg/mL pepstatin A, 2 μg/mL Aprotinin, 0.1 mM PMSF, and 10 μM GDP using a small glass homogenizer followed by passage through a 26 gauge needle. Membranes were aliquoted, snap frozen in liquid N2, and stored at −80° C. Membranes from cells stably expressing the human A1 AR(CHO K1 cells) or A3 AR (HEK 293 cells) were prepared as described (Robeva et al., 1996).
(§2) Radioligand binding to recombinant human A2A receptors in Sf9 cell membranes was performed using either the radio labeled agonist, ^125I-APE (Luthin et al., 1995) or the radio labeled antagonist, ^125I-ZM241385 (^125I-ZM). To detect the high affinity, GTPγS-sensitive state of A1 and A3AR, we used the agonist, ^125I-ABA (Linden et al., 1985; Linden et al., 1993). Binding experiments were performed in triplicate with 5 μg (A2A) or 25 μg (A1 and A3) membrane protein in a total volume of 0.1 mL HE buffer (20 mM HEPES and 1 mM EDTA) with 1 U/mL adenosine deaminase and 5 mM MgCl2 with or without 50 μM GTPγS. […] Nonspecific binding was measured in the presence of 50 μM NECA. […]
In general terms: In a radioligand displacement assay an active substance lowers the binding of a labelled ligand.

The target of assay [1] is T2, recombinant human A2A receptors (Homo sapiens, UniProt P29274).
T2 construct: expressed in transfected cells; host or cells: Sf9 insect cells, viral infection, membranes
T2 sequence (P29274 whole entry): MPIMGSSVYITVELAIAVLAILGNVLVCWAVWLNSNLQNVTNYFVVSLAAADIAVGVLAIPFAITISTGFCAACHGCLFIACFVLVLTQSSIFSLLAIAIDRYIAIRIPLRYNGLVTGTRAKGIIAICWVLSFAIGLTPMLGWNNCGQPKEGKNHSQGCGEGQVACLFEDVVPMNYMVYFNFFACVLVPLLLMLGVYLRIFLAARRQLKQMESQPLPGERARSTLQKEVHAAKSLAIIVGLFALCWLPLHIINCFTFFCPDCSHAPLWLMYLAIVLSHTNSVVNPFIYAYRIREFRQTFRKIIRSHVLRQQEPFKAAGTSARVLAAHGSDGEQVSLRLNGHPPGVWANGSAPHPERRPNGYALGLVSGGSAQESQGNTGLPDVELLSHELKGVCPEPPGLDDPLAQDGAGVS
Description: Radioligand competition binding to recombinant human A2A receptors in Sf9 cell membranes (125I-APE or 125I-ZM241385). The conditions noted are these: read-out: A2A (nM) binding affinity. As to the method:
as §1, §2

The next assay concerns the target T3, A3 AR (Homo sapiens, UniProt P0DMS8).
T3 construct: expressed in transfected cells
T3 sequence (P0DMS8 1-318): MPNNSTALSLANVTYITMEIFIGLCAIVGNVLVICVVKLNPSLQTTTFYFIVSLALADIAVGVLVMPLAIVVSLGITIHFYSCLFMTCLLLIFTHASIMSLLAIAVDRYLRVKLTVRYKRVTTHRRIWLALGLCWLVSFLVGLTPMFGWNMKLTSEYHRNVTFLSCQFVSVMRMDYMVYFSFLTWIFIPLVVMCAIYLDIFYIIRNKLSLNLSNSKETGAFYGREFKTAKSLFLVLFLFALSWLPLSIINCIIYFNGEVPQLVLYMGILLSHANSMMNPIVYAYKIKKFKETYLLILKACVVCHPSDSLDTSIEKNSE
Description: Radioligand competition binding to human A3 adenosine receptor (125I-ABA). The conditions noted are these: membranes of HEK 293 cells expressing A3 AR, read-out: A3 (nM) binding affinity. As to the method:
as §1, §2

Another assay has as its system human neutrophils. Description: Human neutrophil oxidative activity, luminol-enhanced chemiluminescence (fMLP stimulated). The conditions noted are these: human neutrophil experiment as described in Example 6 without Rolipram, peak chemiluminescence, read-out: Functional. It counts as cell-based. As to the method: Chemiluminescence Methods: Luminol enhanced chemiluminescence, a measure of neutrophil oxidative activity, is dependent upon both superoxide production and mobilization of the granule enzyme myeloperoxidase. The light is emitted from unstable high-energy oxygen species such as hypochlorous acid and singlet oxygen generated by activated neutrophils.
Following incubation 100 µL aliquots of the PMN were transferred to wells (White walled clear bottom 96 well tissue culture plates Costar #3670; 2 wells/condition) containing […] and luminol (final concentration 100 µM) with or without adenosine agonist (final agonist concentrations 0.01-1000 nM). The plate was incubated 5 min (37° C.) and then fMLP ([…] in HA; final concentration […]) was added to all wells.
Peak chemiluminescence was determined with a Victor 1420 Multilabel Counter in the chemiluminescence mode using the Wallace Workstation software. Data are presented as peak chemiluminescence as percent of activity in the absence of an adenosine agonist. The EC50 was determined using PRISM software. All compounds were tested with PMNs from three separate donors.
Purified neutrophils (−98% neutrophils and >95% viable by trypan blue exclusion) containing <1 platelet per 5 neutrophils and <50 pg/ml endotoxin (limulus amebocyte lysate assay) were obtained from normal heparinized (10 U/ml) venous blood by a one step Ficoll-hypaque separation procedure (A. Ferrante et al., J. Immunol. Meth., 36, 109 (1980)).
Luminol-enhanced chemiluminescence, a measure of neutrophil oxidative activity, is dependent upon both superoxide production and mobilization of the lysosomal granule enzyme myeloperoxidase. The light is emitted from unstable high-energy oxygen species generated by activated neutrophils. […] Then luminol (1×10^−4 M) enhanced f-met-leu-phe (1 mcM) stimulated chemiluminescence was read with a Chronolog® Photometer (Crono-log Corp., Havertown, Pa.) at 37° C. for 2-4 minutes. […]

Regarding `Nc1nc(C#CC2(O)CC3CCC2C3)nc2c1ncn2[C@@H]1O[C@H](C(=O)NC2CC2)C(O)C1O` (stereo in doubt) [Example 1, 5-[6-Amino-2-(2-hydroxy-bicyclo[2.2.1]hept-2-ylethynyl)-purin-9-yl]-3,4-dihydroxy-tetrahydro-furan-2-carboxylic acid cyclopropylamide], the results for the Ki (on human A1 AR; in assay [1]; on A3 AR) were 10 nM, 0.6 nM and 7 nM, respectively. Also, in the assay with human neutrophils (Homo sapiens, Neutrophil), the EC50 came out at 0.9 nM.
For `Nc1nc(C#CC2(O)CC3CCC2C3)nc2c1ncn2[C@@H]1O[C@H](C(=O)NC2CC2)C(O)C1O` (stereo in doubt) [Example 2, 5-[6-Amino-2-(2-hydroxy-bicyclo[2.2.1]hept-2-ylethynyl)-purin-9-yl]-3,4-dihydroxy-tetrahydro-furan-2-carboxylic acid cyclopropylamide], the Ki at human A1 AR was determined as 18 nM; in assay [1], 2 nM; at A3 AR, 12 nM. For the same molecule, the EC50 in the assay on human neutrophils stood at 1.5 nM.
As for `Nc1nc(C#CC2(O)C3CC4CC(C3)CC2C4)nc2c1ncn2[C@@H]1O[C@H](C(=O)NC2CC2)C(O)C1O` (stereo in doubt) [Example 3, 5-[6-Amino-2-(2-hydroxy-adamantan-2-ylethynyl)-purin-9-yl]-3,4-dihydroxy-tetrahydro-furan-2-carboxylic acid cyclopropylamide], the Ki on human A1 AR was determined as 67.2 nM; in assay [1] it was 1 nM; at A3 AR it was 45.4 nM. In addition, the EC50 in the assay on human neutrophils (Homo sapiens, Neutrophil) was determined as 2.4 nM.

For the origin of these results see patent publication US7875595B2, “2-polycyclic propynyl adenosine analogs having A2A agonist activity” (University of Virginia Patent Foundation, priority 2004, dated 2011).
